This experiment deals with MAPK1/ELK1 interaction. The experiment is described as follows: SIMPL kinase/substrate interactions (ELISA and Western blot). Type of experiment: cell-based, human. The conditions noted are these: kinase-IN / substrate-IC, stimulation. Here is the method: Cell culture and treatment. HEK 293 and HeLa cell lines were generous gifts from Dr. J. Moffat. HEK 293 Flp-In T-Rex cell line was a generous gift from Dr. A. C. Gingras. These cells were grown in DMEM supplemented with 10% fetal calf serum (Life Technologies). PC9 cell line was a generous gift from Dr. P. Jannes and they were grown in RPMI 1640 medium supplemented with 10% fetal calf serum. For ELISA assay, cells were seeded in 96 well (Sarstedt AG & Co) or 384 well plates (Greiner Bio-One) with 15,000 (96 well) or 5,000 (384 well) cells per well. Cells were transfected with various plasmids with polyethylenimine (PEI) Max (Polysciences). Expression in HEK 293 Flp-In T-Rex cells was induced by treating the cells with tetracycline (1 μg/ml) for 6-16 hrs. […] Stable cell lines were created according to the manual of Flp-In T-REx (Invitrogen). Briefly, plasmid containing both bait and prey DNA and pOG44 plasmid (1:10 ratio) were cotransfected into HEK 293 Flp-In T-Rex cells.
Western blot analysis and immunoprecipitation. Cells were lysed in buffer H (Triton X 100 1%, β-glycerophosphate pH7.3 50 mM, EGTA 1.5 mM, EDTA 1 mM, orthovanadate 0.1 mM, DTT 1 mM supplemented with protease inhibitors (Roche)). […]
ELISA. […] The plate was washed 3 times with PBST followed by chemiluminescence reading using SuperSignal ELISA Pico substrate (ThermoFisher). […]

On to Tetradecanoylphorbol acetate [TPA], for which the “MAPK1/ELK1 interaction after MAPK1 activation” value is reported as “enhanced MAPK1/ELK1 interaction”.
